According to patent publication US20220370453A1 (Storm Therapeutics Ltd, priority 2019, published 2022):

Target: T1, BCDIN3D (Homo sapiens, UniProt Q7Z5W3)
T1 sequence (Q7Z5W3 1-292): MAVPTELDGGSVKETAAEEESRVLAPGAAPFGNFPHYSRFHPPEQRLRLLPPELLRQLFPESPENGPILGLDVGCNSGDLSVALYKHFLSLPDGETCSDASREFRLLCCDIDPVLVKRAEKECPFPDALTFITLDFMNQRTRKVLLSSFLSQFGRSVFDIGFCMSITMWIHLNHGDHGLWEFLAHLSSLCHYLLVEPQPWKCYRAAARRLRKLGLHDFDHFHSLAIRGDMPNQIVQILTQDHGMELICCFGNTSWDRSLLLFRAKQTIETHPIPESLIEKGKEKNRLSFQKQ
Experiment: BCDIN3D IC50 RFMS (RapidFire) assay with mini-helix
Assay type: biochemical
Conditions: 25 nM enzyme
Description: The following General Methods details the assay conditions for the Biological assays.
BCDIN3D IC50 RFMS Assay with Mini-Helix
The enzymatic assay was performed in a 384-well polypropylene plate in assay buffer with 25 mM Tris pH 8.0, 10 mM DTT, 1 mM EDTA, 0.03% BSA in a final assay volume of 20 μL. The enzyme with a final concentration of 25 nM was pre-incubated with the respective compound at 1% DMSO final assay concentration over 10 min at room temperature. The reaction was initiated by addition of 0.2 μM final assay concentration of mini-helix and 6 μM final concentration of SAM as substrates. After a 1 hr incubation at 37° C., the reaction was terminated with 40 μL of stop solution of 7.5% trichloroactetic acid in water containing 112.5 nM D4-SAH and 30 nM ^13C10-SAH used as internal standards. The SAH product concentrations as well as both internal standards were analyzed by a RapidFire High Throughput Mass Spectrometry System (Agilent Technologies, Santa Clara, Calif.) using an AP14000 triple quadrupole mass spectrometer (AB Sciex Framingham, Mass.).

[1] = mini-helix 0.2 μM and SAM 6 μM as substrates, 1 hr at 37° C.
[2] = mini-helix substrate 0.2 μM, SAM 6 μM

IC50 [1] [µM]	IC50 [2] [µM]	SMILES
0.069	–	[2H]C([2H])([2H])n1ncc2c(NC(C)(C)C)nc(NCC(N)c3ccccc3F)nc21 (stereo in doubt) [Compound 7.16, N6-[(2R)-2-amino-2-(2-fluorophenyl)ethyl]-N4-tert-butyl-1-(trideuteriomethyl)pyrazolo[3,4-d]pyrimidine-4,6-diamine]
4.27	–	Cn1ncc2c(Nc3cccc(C(F)(F)F)c3)nc(NCCN)nc21 [Compound 1.02, N6-(2-aminoethyl)-1-methyl-N4-[3-(trifluoromethyl)phenyl]-1H-pyrazolo[3,4-d]pyrimidine-4,6-diamine]
4.38	–	COc1ccc(CCNc2nc(NCCN)nc3c2cnn3C)cn1 [Compound 1.07, N6-(2-aminoethyl)-N4-[2-(6-methoxypyridin-3-yl)ethyl]-1-methyl-1H-pyrazolo[3,4-d]pyrimidine-4,6-diamine]
2.8	–	COc1ccc(CCNc2nc(NCCN)nc3c2cnn3C)cc1Cl [Compound 1.08, N6-(2-aminoethyl)-N4-[2-(3-chloro-4-methoxyphenyl)ethyl]-1-methyl-1H-pyrazolo[3,4-d]pyrimidine-4,6-diamine]
4.07	–	Cn1ncc2c(NCCc3ccc4c(c3)OCO4)nc(NCCN)nc21 [Compound 1.09, N6-(2-aminoethyl)-N4-[2-(2H-1,3-benzodioxol-5-yl)ethyl]-1-methyl-1H-pyrazolo[3,4-d]pyrimidine-4,6-diamine]
5.49	–	Cn1ncc2c(NCc3ccc4occc4c3)nc(NCCN)nc21 [Compound 1.10, N6-(2-aminoethyl)-N4-[(1-benzofuran-5-yl)methyl]-1-methyl-1H-pyrazolo[3,4-d]pyrimidine-4,6-diamine]
9.52	–	Cn1ncc2c(NCC3CCN(S(=O)(=O)c4ccccc4)CC3)nc(NCCN)nc21 [Compound 1.12, N6-(2-aminoethyl)-N4-{[1-(benzenesulfonyl)piperidin-4-yl]methyl}-1-methyl-1H-pyrazolo[3,4-d]pyrimidine-4,6-diamine]
7.8	–	Cn1ncc2c(NCc3ccc4nc[nH]c4c3)nc(NCCN)nc21 [Compound 1.13, N6-(2-aminoethyl)-N4-[(1H-1,3-benzodiazol-5-yl)methyl]-1-methyl-1H-pyrazolo[3,4-d]pyrimidine-4,6-diamine]
6.9	–	Cn1ncc2c(NCc3ccc(F)c(Cl)c3)nc(NCCN)nc21 [Compound 1.17, N6-(2-aminoethyl)-N4-[(3-chloro-4-fluorophenyl)methyl]-1-methyl-1H-pyrazolo[3,4-d]pyrimidine-4,6-diamine]
4.75	–	Cn1ncc2c(NCc3ccc(Cl)cc3F)nc(NCCN)nc21 [Compound 1.18, N6-(2-aminoethyl)-N4-[(4-chloro-2-fluorophenyl)methyl]-1-methyl-1H-pyrazolo[3,4-d]pyrimidine-4,6-diamine]
6.38	–	Cn1ncc2c(NCc3ccc(F)cc3F)nc(NCCN)nc21 [Compound 1.19, N6-(2-aminoethyl)-N4-[(2,4-difluorophenyl)methyl]-1-methyl-1H-pyrazolo[3,4-d]pyrimidine-4,6-diamine]
3.53	–	COc1cc(Cl)cc(CNc2nc(NCCN)nc3c2cnn3C)c1 [Compound 1.20, N6-(2-aminoethyl)-N4-[(3-chloro-5-methoxyphenyl)methyl]-1-methyl-1H-pyrazolo[3,4-d]pyrimidine-4,6-diamine]
2.9	–	COc1ccc(CNc2nc(NCCN)nc3c2c(C)nn3C)cc1Cl [Compound 1.29, N6-(2-aminoethyl)-N4-[(3-chloro-4-methoxyphenyl)methyl]-1,3-dimethyl-1H-pyrazolo[3,4-d]pyrimidine-4,6-diamine]
7.62	–	COc1ccc(C(=O)N2CCC(CNc3nc(NCCN)nc4c3cnn4C)CC2)cc1Cl [Compound 1.37, N6-(2-aminoethyl)-N4-{[1-(3-chloro-4-methoxybenzoyl)piperidin-4-yl]methyl}-1-methyl-1H-pyrazolo[3,4-d]pyrimidine-4,6-diamine]
6.91	–	COc1ccc(CNc2nc(NCCN)nc3c2cnn3C)cc1 [Compound 1.39, N6-(2-aminoethyl)-N4-[(4-methoxyphenyl)methyl]-1-methyl-1H-pyrazolo[3,4-d]pyrimidine-4,6-diamine]
6.19	–	Cn1ncc2c(NCC3CCN(C(=O)OC(C)(C)C)CC3)nc(NCCN)nc21 [Compound 1.40, tert-butyl 4-[({6-[(2-aminoethyl)amino]-1-methyl-1H-pyrazolo[3,4-d]pyrimidin-4-yl}amino)methyl]piperidine-1-carboxylate]
21.1	–	Cn1ncc2c(NCC3CCN(Cc4ccccc4)CC3)nc(NCCN)nc21 [Compound 1.41, N6-(2-aminoethyl)-N4-[(1-benzylpiperidin-4-yl)methyl]-1-methyl-1H-pyrazolo[3,4-d]pyrimidine-4,6-diamine]
5.76	–	Cn1ncc2c(NCC3CCN(C(=O)c4ccccc4)CC3)nc(NCCN)nc21 [Compound 1.42, N6-(2-aminoethyl)-N4-[(1-benzoylpiperidin-4-yl)methyl]-1-methyl-1H-pyrazolo[3,4-d]pyrimidine-4,6-diamine]
–	1.71	Cn1ncc2c(NC34CC(C3)C4)nc(NCC3(N)CC3)nc21 [Compound 2.38, 6-N-[(1-aminocyclopropyl)methyl]-4-N-(3-bicyclo[1.1.1]pentanyl)-1-methylpyrazolo[3,4-d]pyrimidine-4,6-diamine]
–	6.56	Cc1ccc(CNc2nc(NC(C)CN)nc3c2cnn3C)cc1Cl (centres unmarked) [Compound 3.02, 6-N-(1-aminopropan-2-yl)-4-N-[(3-chloro-4-methylphenyl)methyl]-1-methylpyrazolo[3,4-d]pyrimidine-4,6-diamine]
–	5.71	Cc1ccc(CNc2nc(NC[C@H](C)N)nc3c2cnn3C)cc1Cl [Compound 3.03, 6-N-[(2S)-2-aminopropyl]-4-N-[(3-chloro-4-methylphenyl)methyl]-1-methylpyrazolo[3,4-d]pyrimidine-4,6-diamine]
–	9.57	Cc1ccc(CNc2nc(NC[C@H]3CCCN3)nc3c2cnn3C)cc1Cl [Compound 3.17, 4-N-[(3-chloro-4-methylphenyl)methyl]-1-methyl-6-N-[[(2R)-pyrrolidin-2-yl]methyl]pyrazolo[3,4-d]pyrimidine-4,6-diamine]
–	8.01	[2H]C([2H])([2H])Nc1nc(NCC(N)c2ccccc2)nc2c1cnn2C (centres unmarked) [Compound 4.37, 6-N-(2-amino-2-phenylethyl)-1-methyl-4-N-(trideuteriomethyl)pyrazolo[3,4-d]pyrimidine-4,6-diamine]
–	1.3	Cn1ncc2c(NC(C)(C)CCO)nc(NC[C@H](N)c3ccccc3)nc21 [Compound 4.70, 3-[[6-[[(2R)-2-amino-2-phenyl-ethyl]amino]-1-methyl-pyrazolo[3,4-d]pyrimidin-4-yl]amino]-3-methyl-butan-1-ol]
–	0.37	Cn1ncc2c(NC(C)(C)C)nc(NCC(N)c3ccc(F)cc3)nc21 (centres unmarked) [Compound 5.30, N6-[2-amino-2-(4-fluorophenyl)ethyl]-N4-tert-butyl-1-methyl-1H-pyrazolo[3,4-d]pyrimidine-4,6-diamine]
–	0.35	Cn1ncc2c(NC(C)(C)C)nc(NCC(N)c3ccc(F)c(F)c3)nc21 (centres unmarked) [Compound 5.31, N6-[2-amino-2-(3,4-difluorophenyl)ethyl]-N4-tert-butyl-1-methyl-pyrazlo[3,4-d]pyrimidine-4,6-diamine]
